In publication PMC12040169 (PLOS Biology, 2025):

Test: in vitro
Details: human, hela cells, % viability

SMILES | viability at 28.5 h, 10 µM [%] | viability at 28.5 h, 10 µM (bulk resorufin, single well) [%]
Cc1ccncc1C(=O)Nc1c(C)noc1C [CBK200393] | 80.7 | 
CC(C)(C)C(=O)N[C@H]1CO[C@H]2[C@@H]1OC[C@@H]2Nc1nccc(C2CCCC2)n1 [CBK289530] | 115 | 
CC(C)(O)c1cc(CC2(NCc3ccc(Cl)cc3)COC2)no1 [CBK289254] | 80.1 | 
FC(F)(F)c1ccnc(Sc2nccs2)n1 [CBK093771] | 91.9 | 
O=C(c1ccncc1)N(c1ccc2oc3c(c2c1)CCCC3)S(=O)(=O)c1cccc([N+](=O)[O-])c1 [CBK265705] | 106 | 
Cc1cc(C)n(CCCC(=O)N2CCOCC(O)(CN3CCCC3)C2)n1 (centres unmarked) [CBK306550] | 101 | 
O=C(CSc1nnc2scc(-c3ccccc3)n12)Nc1nsc(-c2ccccc2)n1 [CBK265672] | 103 | 
COc1ccc2[nH]c3c(c2c1)CCN[C@]31CCN(CCOc2ccc(F)cc2)C1 [CBK089876T] | 73.6 | 
CC(=O)N[C@@H](Cc1c[nH]cn1)C(=O)N1CC[C@H]2NC(=O)[C@H](Cc3ccccc3)NC(=O)C3(C/C=C/C[C@H]2C1)CCOCC3 [CBK292206] | 116 | 
Brc1cnc(-n2cnc3ccccc32)nc1 [CBK288546] | 84.2 | 
O=C(Nc1cccnc1)N1CCc2ccccc2C1 [CBK155312] | 100 | 
COc1ccc(CN2CCNC(=O)C2CC(=O)O)c(F)c1 (centres unmarked) [CBK270143] | 95.6 | 
NC(=O)c1ccc(SCC(=O)O)c([N+](=O)[O-])c1 [CBK034310] | 97.7 | 
CN(C)C(=O)Cn1nc(-c2cc3c(s2)CCCC3)oc1=O [CBK283905] | 98 | 
COc1ccc2[nH]c3c(c2c1)CCNC31CCN(Cc2ccccc2)C1 (centres unmarked) [CBK073952C] | 86.5 | 
CNC(=O)c1cc(-c2cccc(Cl)c2)oc1CC(=O)c1ccc(CN2CCCC2)cc1 [CBK047558] | 95.3 | 
Cc1[nH]c2c(Cl)cc(Cl)cc2c1CCN [CBK070893] |  | 103
CC1(C)Cc2c(cnn2-c2ccc(F)cc2)C(NS(C)(=O)=O)C1 (centres unmarked) [CBK307403] | 92.3 | 
O=C(O)CCCSCC(=O)Nc1ccccc1 [CBK276905] | 88.4 | 
Oc1cc(C(F)(F)F)nc(Nc2ccccc2)n1 [CBK000517] | 89.3 | 
CS(=O)(=O)c1ccc2nc(Nc3nc4c(F)cccc4s3)sc2c1 [CBK287478] | 101 | 
Cc1nnc(SCCOc2ccc(Cl)c(C)c2)s1 [CBK026160] | 89.9 | 
Cc1nc(-c2ccccc2)ccc1C(=O)Nc1nc(CC(N)=O)cs1 [CBK295195] | 96.8 | 

SMILES | viability at 28.5 h, 10 µM [%] | viability at 28.5 h, 10 µM (bulk resorufin, single well) [%]
Brc1ccc(CN2CCN(Cc3c[nH]c4ccccc34)CC2)cc1 [CBK027622] | 85.4 | 
Cc1nccc(C(=O)N2CCC3(C/C=C/C[C@H]4COCC[C@H]4NC(=O)CNC3=O)CC2)n1 [CBK292072] | 103 | 
CCOC(=O)c1c(NS(=O)(=O)c2cc(Cl)sc2Cl)sc2c1CCCC2 [CBK050397] | 96.1 | 
OC(COCc1ccc(Cl)cc1)CN1CCN(c2cccc(Cl)c2)CC1 (centres unmarked) [CBK278315C] | 87.9 | 
Cc1nc(C)c(C(=O)Nc2ccc3c(c2)CN(Cc2ccccc2)C3)o1 [CBK281835] | 91.2 | 
N#Cc1ccc(CNC(=O)N2CCN(Cc3ccccc3)CC2)cc1 [CBK155637] | 90.1 | 
Cc1nn(C)cc1CN1CCC(C(=O)NCCc2ccccc2)C1 (centres unmarked) [CBK281968] | 111 | 
COCCNC(=O)Cn1nnc(-c2ccc(OC)cc2)n1 [CBK069349] | 88.1 | 
O=C1NC2(CCOCC2)C(=O)N1Cc1ncc(-c2cccs2)o1 [CBK304187] | 92 | 
O=C(CC12CC3CC(CC(C3)C1)C2)NCC(=O)Nc1ccc2[nH]c(=O)[nH]c2c1 [CBK295349] | 85.3 | 
Cc1ccc(CO)cc1NC(=O)[C@@H]1CN(Cc2ccccc2)C[C@H]1C(=O)c1ccc(F)cc1 [CBK286431] | 105 | 
O=C(O)c1ccc(-c2ccc(/C=C/c3[nH]c(=O)[nH]c(=O)c3[N+](=O)[O-])o2)cc1Cl [CBK267139] | 94.9 | 
COc1cccc(-c2cnc3[nH]c(=O)n(Cc4ccc(Cl)cc4)c3n2)c1 [CBK064596] | 111 | 
O=C(CSc1nnc(-c2ccccc2)c(-c2ccccc2)n1)Nc1ccc(N2CCOCC2)cc1 [CBK269684] | 89.7 | 
O=C(COc1ccc(S(=O)(=O)N2CCCCC2)cc1)Nc1ccc2c(c1)OCCO2 [CBK268205] | 102 | 
COc1ccc(CC(=O)Nc2ccc(S(N)(=O)=O)cc2)cc1OC [CBK263429] | 92 | 
Cc1ccc(NC(=O)Cn2c(=O)cc(O)c3ccccc32)cc1 [CBK291116] | 95.9 | 
Cc1cc(O)c(-c2n[nH]c3c2C(c2ccccc2F)N(Cc2cccnc2)C3=O)cc1C (centres unmarked) [CBK268831] | 89.8 | 
CC(C)(C)NS(=O)(=O)c1cccc2nonc12 [CBK265569] | 115 | 
COc1cc(Nc2cncc(-c3cccnc3)n2)cc(OC)c1OC [CBK065201] | 93.7 | 
Cc1ccc(C(=O)N2Cc3ccccc3C2)cn1 [CBK200318] | 94.9 | 
CC(C)C(=O)N1CC2(CCN(CCc3c[nH]c4ccccc34)CC2)c2ccccc21 [CBK126725] | 95.6 | 
Cc1ccccc1Nc1n[nH]c(=S)s1 [CBK015808] | 111 | 

SMILES | viability at 28.5 h, 10 µM [%] | viability at 28.5 h, 10 µM (bulk resorufin, single well) [%]
CC(C)(C)c1ccc(NC(=O)n2ccc3c(N4CCNCC4)cccc32)cc1 [CBK003736C] | 27 | 
CNC(=O)Cn1nc(C)c2cnn(-c3ccccc3)c2c1=O [CBK287669] | 92.8 | 
Cc1[nH]c2ccc(C(=O)N(Cc3ccccc3)C3CC3)cc2c1C [CBK297913] | 89.1 | 
Cc1noc(C)c1S(=O)(=O)NCC(=O)N1CCOCC1 [CBK034476] | 94.9 | 
Cc1oc2ccccc2c1CN(CCN(C)C)Cc1ccncc1 [CBK283097] | 87.8 | 
COc1ccc(C(CNC(=O)C(=O)Nc2ccc(C(=O)O)cc2)N(C)C)cc1 (centres unmarked) [CBK286724] | 119 | 
Fc1ccc(CSc2nc3ccccc3nc2C(F)(F)F)cc1 [CBK107199] | 98.6 | 
CCNC(=O)C1CCN(Cc2c[nH]nc2-c2ccc(F)cc2)C1 (centres unmarked) [CBK307438] | 90 | 
CCN1CCC2(CC1)Nc1cc(Cl)c(S(N)(=O)=O)cc1S(=O)(=O)N2 [CBK010418C] | 97.7 | 
O=C(Nc1ccc2[nH]ccc2c1)N1CCc2ccccc2C1 [CBK155289] | 84.5 | 
COc1ccc(CNc2cncc(-c3ccc(C(C)C)cc3)n2)cc1 [CBK065514] | 119 | 
Cc1cc(N2CCCC(COc3ccccc3F)C2)nc(N)n1 (centres unmarked) [CBK306714] | 74.4 | 
Cc1cc(NC(=O)c2cccc(N3C(=O)CCC3=O)c2)no1 [CBK287352] | 112 | 
CCN(CC)C(=O)N1CCC2(CC1)CC(=O)c1ccccc1O2 [CBK283495] | 105 | 
CS(=O)(=O)N1CC2(CCN(Cc3cccc4cccnc34)CC2)c2ccccc21 [CBK136955] | 93.2 | 
Cc1oc2ccc(O)cc2c1C(=O)N(C)CCOc1ccccc1 [CBK282696] | 111 | 
CN1CCN(C(c2ccc(O)cc2)c2nnnn2Cc2ccccc2)CC1 (centres unmarked) [CBK084719] | 94.8 | 
CCc1ccc(OCCNc2cc(N3CCN(CCO)CC3)ccc2[N+](=O)[O-])cc1 [CBK046496] | 91.7 | 
Cc1ccc(S(=O)(=O)NCc2c(-c3ccccc3)c3cc(Br)ccc3[nH]c2=O)cc1 [CBK265231] | 98.3 | 
O=C1CCCN1CCCNc1ncnc2c1cnn2-c1ccc(Cl)cc1 [CBK265838] | 97.1 | 
CC(C)(CO)CNc1cc(Cl)nc2ccnn12 [CBK037200] | 91 | 
O=C(COc1ccc(S(=O)(=O)N2CCOCC2)cc1)NCc1ccccc1 [CBK268533] | 98.6 | 
Cc1ccn(CCNC(=O)Cc2coc3cc(C)c(C)cc23)n1 [CBK282578] | 107 | 

SMILES | viability at 28.5 h, 10 µM [%] | viability at 28.5 h, 10 µM (bulk resorufin, single well) [%]
O=CN1CCc2c([nH]c3cc(F)ccc23)C12CCN(CCc1cccs1)CC2 [CBK040312] | 81.2 | 
CC(=O)NC1(c2ccc(F)cc2)CCN(CC(=O)NCC2CC2)CC1 [CBK283614] | 93.9 | 
CC(=O)Nc1cccc(C(=O)N2CCN(Cc3ccc4c(c3)OCO4)CC2)c1 [CBK270031] | 89.2 | 
CC(Oc1cccc(F)c1)C(=O)N(C)Cc1cccnc1 (centres unmarked) [CBK304841] | 95.5 | 
CC(C)CCNC(=O)c1c(O)c2ccccc2[nH]c1=O [CBK159975] | 91.7 | 
COc1ccc(S(=O)(=O)Nc2cccc(C(=O)N3CCOCC3)c2)cc1OC [CBK039010] | 82.7 | 
COc1ccc2c(=O)c3c(oc2c1)C(=O)N(CCN(C)C)C3c1ccccn1 (centres unmarked) [CBK287781] | 98.3 | 
O=C(CC1(O)C(=O)N(CCc2ccccc2)c2ccc(Br)cc21)c1ccncc1 (centres unmarked) [CBK293976] | 90.2 | 
COc1cc(CNCc2cccs2)cc(Cl)c1OCC(N)=O [CBK270237C] | 87.6 | 
O=P(O)(CNCc1ccccc1)CNCc1ccccc1 [CBK261604C] | 118 | 
CCCc1ccc(S(=O)(=O)Nc2cccc(C(=O)OCC)c2)cc1 [CBK034332] | 92.5 | 
O=C(Nc1cc(N2CCCS2(=O)=O)ccc1F)c1n[nH]c2ccccc12 [CBK304216] | 80.5 | 
Cc1cc2c(cc3c(=O)n(CC(=O)N4CCCCC4)nc(C)n32)o1 [CBK283630] | 83.4 | 
CCC(CN(C)C)C(=O)c1ccccc1 (centres unmarked) [CBK015409C] | 95.1 | 
CC(O)c1nc2ccccc2n1C (centres unmarked) [CBK115560] | 94.9 | 
O=S(=O)(Nc1ccc(-c2nnn[nH]2)cc1)c1c(Cl)cc(C(F)(F)F)cc1Cl [CBK155570] | 95.4 | 
COc1ccc(-c2nnc(SCC(=O)NN)n2-c2ccccc2)cc1 [CBK263157] | 87.3 | 
CC1(C)Cc2c(sc(NC(=O)Cc3ccccc3)c2C(=O)O)CO1 [CBK264354] | 110 | 
COc1cc(C)c(Nc2cccc(-c3ccsc3)n2)cc1OC [CBK037025] | 104 | 
CC1CC(C)CN(C(=O)c2ccc(-n3ccnc3)c(-n3cccc3)c2)C1 (centres unmarked) [CBK285372] | 101 | 
